{"source": "paper PMC10354055", "about": "“An optimized Nurr1 agonist provides disease-modifying effects in Parkinson’s disease models” (Nature Communications, 2023)", "key": {"MPTP-induced male mice": {"test_system": "MPTP-induced male mice", "test": "IHC of Iba-1+ microglia in STR and SNpc, MPTP-induced mice", "assay_type": "in vivo, mouse", "details": "for Iba-1+ cells in STR (% of control): Figure 4m; for Iba-1+ cells in STR (% of control) / Iba-1+ cells in SNpc (% of control): MPTP-induced mice, individual animal values; for Iba-1+ cells in SNpc (% of control): Figure 4n", "method": "MPTP (Sigma-Aldrich) was intraperitoneally (i.p.) injected (30 mg/kg) for 5 days (Day 1-5). […] To test dyskinetic involuntary behavior, an L-DOPA injected group was included, which received 50 mg/kg of L-DOPA and 15 mg/kg of benserazide (Sigma-Aldrich) (i.p.) for 16 days (Day 1–16). All compounds were administered 6 h post-MPTP injection to avoid any effect of compounds on the MPTP metabolism in the brain. Motor and non-motor related behavior tests were performed on the following days as described in Fig. 4a in an assessor- and observer-blinded fashion. Pre-training and baseline setup for motor-related behaviors were performed 3 days prior to the injections. Mice were sacrificed and subjected to immunohistochemistry. Mice were housed at the Animal Care Facilities of McLean Hospital under a 12-h light/12-h dark cycle, ambient temperature and humidity. Animals were handled in accordance with McLean Hospital’s Institutional Animal Care and Use Committee (Protocol #: 2015N000002) and followed National Institutes of Health guidelines.\n(§1) Images were acquired using a KEYENCE microscope and quantified as the number or optical density of immunoreactive cells using ImageJ software.\n(§2) The numbers of TH^+ DA neurons, NeuN^+ neurons, pS129 αSyn^+ cells in the SN and Iba-1^+ microglia in the SN and striatum were stereologically counted in six coronal sections (30 µm thickness) taken every 6th section (180 µm intervals) for each brain. The boundaries of the SN and striatum were delimited at low magnification (4X) to estimate each total area. Immunoreactive cells were counted with images taken at high magnification (×40) by a single blinded investigator. The group mean of the total number of immunoreactive cells from each brain was transformed as percentage of the number in the control group (%). For AAV-αSyn-induced mice, the group mean of the total number of cells in the ipsilateral side was transformed as a percentage of that observed in the contralateral side."}, "Nurr1-LBD": {"target": "T1, Nurr1-LBD (Mus musculus, UniProt Q06219)", "T1 construct": "transfected with pCMV-fNurr1, pGAL-Nurr1(LBD), pGAL-Nor1(LBD) or pGAL-Nur77(LBD) and reporter construct; expressed in transfected cells; host or cells: SK-N-BE(2)C (human neuroblastoma), N27-A (rat dopaminergic), MN9D (murine dopaminergic)", "T1 sequence (Q06219 360-595 limits assumed)": "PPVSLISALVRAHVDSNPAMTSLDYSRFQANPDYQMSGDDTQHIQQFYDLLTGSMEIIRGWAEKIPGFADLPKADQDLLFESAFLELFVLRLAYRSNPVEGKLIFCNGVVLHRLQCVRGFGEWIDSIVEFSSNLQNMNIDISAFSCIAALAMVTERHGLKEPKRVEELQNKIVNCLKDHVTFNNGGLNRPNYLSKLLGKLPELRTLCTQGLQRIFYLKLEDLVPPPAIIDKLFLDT", "test": "Luciferase reporter assay, Nurr1-LBD, SK-N-BE(2)C cells", "assay_type": "cell-based", "details": "for Luciferase activity (fold): Fig. 1d", "excerpt": "(§3) Nurr1 transactivity was normalized to β-galactosidase activity."}, "[1]": {"test_system": "AAV-αSyn-induced male mice", "test": "IHC/stereology of TH+ and NeuN+ neurons and TH+ fibers, AAV-αSyn-induced mice", "assay_type": "in vivo, mouse", "details": "for loss of TH+ and NeuN+ neurons and TH+ fibers (in words): αSynWT-mice", "excerpt": "(§4) Adeno-associated viruses (AAVs) expressing GFP only or αSyn (wild-type or A53T) were kindly provided by Dr. Yoon Seong Kim from the University of Central Florida. Recombinant AAV vectors were produced using modified pAAV-IRES-hrGFP (Agilent) to express wild-type and mutant human αSyn under control of the CMV promoter. Viral particles (AAV2) were produced at the University of Iowa Viral Vector Core according to standard operating procedures (https://medicine.uiowa.edu/vectorcore/). […] AAV vectors were delivered into the substantia nigra unilaterally by stereotaxic surgery.\nas §1, §2"}, "[2]": {"test_system": "AAV-αSyn-induced male mice", "test": "Cylinder test, AAV-αSyn-induced PD model mice", "assay_type": "in vivo, mouse", "details": "αSynWT and αSynA53T mice; CQ 40, 4A7C-301 5 mg/kg/day i.p.", "excerpt": "as §4\nMice were placed in a transparent plastic cylinder (15.5 cm high, 12.7 cm diameter) with a mirror behind it. Spontaneous activity was recorded and measured as counting the number of rearing events for 3 min session. A rear was considered only when the mouse touched the wall of the cylinder with its forelimb paws while standing on its hindlimbs (vertical movement) to count meaningful physiological movements."}, "HeLa cells": {"test_system": "HeLa cells", "test": "Autophagolysosome (APL) formation assay, mRFP-GFP-LC3, HeLa cells", "assay_type": "cell-based", "details": "CQ 20 µM, 4A7C-301 1 µM; for percentage of red dots among total LC3 dots: EBSS 6 h; for APL formation / autophagy (in words): EBSS, BafA1 10 nM", "method": "as §3\nHeLa and N27-A cells were transfected with tandem mRFP-GFP-LC3 (Addgene) plasmid using Lipofectamine 2000 (Invitrogen) in 24-well plates. After 24 h, cells were incubated in starvation medium (Earle’s Balanced Salt Solution, EBSS; Lonza) containing bafilomycin A1 (BafA1, 10 nM), CQ (20 µM), or 4A7C-301 (1 µM) for 6 h and then fixed with 4% formaldehyde for fluorescence detection. Images were taken using a KEYENCE microscope and red (mRFP) LC3 dots and yellow (mRFP+GFP) LC3 dots were counted from three independent wells for each treatment group. 10 cells were randomly selected and counted from each well and a total of 30 cells were analyzed for each treatment group in both HeLa and N27-A cells."}, "[3]": {"test_system": "AAV-αSyn-induced male mice", "test": "pS129 αSyn+ cells in SNpc, AAV-αSyn-induced mice", "assay_type": "in vivo, mouse", "excerpt": "as §4, §1, §2"}, "[4]": {"details": "Nurr1-LBD and full-length Nurr1, SK-N-BE(2)C cells, Fig. 1d,e"}, "[5]": {"details": "Nurr1 activation, Supplementary Table 1, values in µM"}}, "note": "Values joined by “and” are separate entries in the source; they are usually repeats but may differ in a detail not shown here. Identical values can stand only once.", "data": [{"smiles": "CCN(CC)CCCC(C)Nc1ccnc2cc(Cl)ccc12", "note": "(stereo not drawn) [CQ, chloroquine]", "values": [{"measurement": "Iba-1+ cells in STR (% of control)", "setting": "MPTP-induced male mice", "value": "156.51 % of control and 147.74 % of control and 143.13 % of control and 144.76 % of control and 151.54 % of control and 162.57 % of control and 147.11 % of control and 149.46 % of control"}, {"measurement": "Iba-1+ cells in SNpc (% of control)", "setting": "MPTP-induced male mice", "value": "165.17 % of control and 275.28 % of control and 277.25 % of control and 239.89 % of control and 248.74 % of control and 269.38 % of control and 278.23 % of control"}, {"measurement": "EC50", "setting": "Nurr1-LBD; [4]", "value": "50 to 70", "unit": "µM"}, {"measurement": "EC50", "setting": "Nurr1-LBD; [5]", "value": 50.2, "unit": "µM"}, {"measurement": "loss of TH+ and NeuN+ neurons and TH+ fibers (in words)", "setting": "[1]", "value": "partially prevented"}, {"measurement": "motor deficits, cylinder test (rearing) (in words)", "setting": "[2]", "value": "partial recovery"}, {"measurement": "percentage of red dots among total LC3 dots", "setting": "HeLa cells", "value": 21.7, "unit": "%"}, {"measurement": "APL formation / autophagy (in words)", "setting": "HeLa cells", "value": "significantly inhibited"}, {"measurement": "phosphorylated αSyn (αSynS129) in SN (in words)", "setting": "[3]; αSynWT-mice", "value": "significantly diminished"}]}, {"smiles": "CCN1CCN(c2cc(N3CCN(CC)CC3)nc(NCCNc3ccnc4cc(Cl)ccc34)n2)CC1", "note": "[4A7C-301, N^1-(4,6-bis(4-ethylpiperazin-1-yl)pyrimidin-2-yl)-N^2-(7-chloroquinolin-4-yl)ethane-1,2-diamine]", "values": [{"measurement": "Iba-1+ cells in STR (% of control)", "setting": "MPTP-induced male mice", "value": "125.5 % of control and 139.6 % of control and 120.61 % of control and 117.09 % of control and 138.52 % of control and 80.29 % of control and 135.9 % of control"}, {"measurement": "Iba-1+ cells in SNpc (% of control)", "setting": "MPTP-induced male mice", "value": "160.25 % of control and 167.13 % of control and 152.39 % of control and 127.81 % of control and 217.28 % of control and 189.75 % of control and 198.6 % of control"}, {"measurement": "Iba-1+ microglia in STR and SN (in words)", "setting": "MPTP-induced male mice; MPTP mice", "value": "markedly reduced"}, {"measurement": "Luciferase activity (fold), Nurr1", "setting": "Nurr1-LBD; Fig. 1f, CQ 100 µM, 4A7C-301 20 µM", "value": "16.1033 fold and 17.0687 fold and 15.1126 fold"}, {"measurement": "Luciferase activity (fold)", "setting": "Nurr1-LBD; 0.1 µM", "value": "1.566 fold and 1.556 fold and 1.583 fold"}, {"measurement": "Luciferase activity (fold)", "setting": "Nurr1-LBD; 1 µM", "value": "2.853 fold and 2.913 fold and 2.848 fold"}, {"measurement": "Luciferase activity (fold)", "setting": "Nurr1-LBD; 10 µM", "value": "8.938 fold and 9.512 fold and 11.2109 fold"}, {"measurement": "Luciferase activity (fold)", "setting": "Nurr1-LBD; 20 µM", "value": "17.8435 fold and 18.5652 fold and 17.952 fold"}, {"measurement": "EC50", "setting": "Nurr1-LBD; [4]", "value": "7 to 8", "unit": "µM"}, {"measurement": "Maximum fold activity", "setting": "Nurr1-LBD; Nurr1 activation, Supplementary Table 1", "value": "18.12 ± 3.02 fold and 18.12 fold"}, {"measurement": "EC50", "setting": "Nurr1-LBD; [5]", "value": 6.53, "unit": "µM"}, {"measurement": "loss of TH+ and NeuN+ neurons and fibers (in words)", "setting": "[1]; αSynA53T-mice", "value": "significantly prevented"}, {"measurement": "loss of TH+ and NeuN+ neurons and TH+ fibers (in words)", "setting": "[1]", "value": "partially prevented"}, {"measurement": "motor deficits, cylinder test (rearing) (in words)", "setting": "[2]", "value": "improved motor deficits"}, {"measurement": "percentage of red dots among total LC3 dots", "setting": "HeLa cells", "value": 63.9, "unit": "%"}, {"measurement": "APL formation / autophagy (in words)", "setting": "HeLa cells", "value": "did not inhibit"}, {"measurement": "phosphorylated αSyn (αSynS129) in SN (in words)", "setting": "[3]; αSynA53T-mice", "value": "significantly reduced"}, {"measurement": "phosphorylated αSyn (αSynS129) in SN (in words)", "setting": "[3]; αSynWT-mice", "value": "significantly diminished"}]}]}
